Measurements as given in US12390536B2, “Antibody-drug complex containing toll-like receptor 7/8 dual agonist compound” (ASTELLAS PHARMA INC., priority 2022, dated 2025).
Counter-ions that a name gives are not always drawn. Like-named read-outs stand apart in the source and are kept apart here.

Target: T1, human TLR8 (Homo sapiens, UniProt Q9NR97)
T1 construct: expressed in transfected cells
T1 sequence (Q9NR97 27-1041): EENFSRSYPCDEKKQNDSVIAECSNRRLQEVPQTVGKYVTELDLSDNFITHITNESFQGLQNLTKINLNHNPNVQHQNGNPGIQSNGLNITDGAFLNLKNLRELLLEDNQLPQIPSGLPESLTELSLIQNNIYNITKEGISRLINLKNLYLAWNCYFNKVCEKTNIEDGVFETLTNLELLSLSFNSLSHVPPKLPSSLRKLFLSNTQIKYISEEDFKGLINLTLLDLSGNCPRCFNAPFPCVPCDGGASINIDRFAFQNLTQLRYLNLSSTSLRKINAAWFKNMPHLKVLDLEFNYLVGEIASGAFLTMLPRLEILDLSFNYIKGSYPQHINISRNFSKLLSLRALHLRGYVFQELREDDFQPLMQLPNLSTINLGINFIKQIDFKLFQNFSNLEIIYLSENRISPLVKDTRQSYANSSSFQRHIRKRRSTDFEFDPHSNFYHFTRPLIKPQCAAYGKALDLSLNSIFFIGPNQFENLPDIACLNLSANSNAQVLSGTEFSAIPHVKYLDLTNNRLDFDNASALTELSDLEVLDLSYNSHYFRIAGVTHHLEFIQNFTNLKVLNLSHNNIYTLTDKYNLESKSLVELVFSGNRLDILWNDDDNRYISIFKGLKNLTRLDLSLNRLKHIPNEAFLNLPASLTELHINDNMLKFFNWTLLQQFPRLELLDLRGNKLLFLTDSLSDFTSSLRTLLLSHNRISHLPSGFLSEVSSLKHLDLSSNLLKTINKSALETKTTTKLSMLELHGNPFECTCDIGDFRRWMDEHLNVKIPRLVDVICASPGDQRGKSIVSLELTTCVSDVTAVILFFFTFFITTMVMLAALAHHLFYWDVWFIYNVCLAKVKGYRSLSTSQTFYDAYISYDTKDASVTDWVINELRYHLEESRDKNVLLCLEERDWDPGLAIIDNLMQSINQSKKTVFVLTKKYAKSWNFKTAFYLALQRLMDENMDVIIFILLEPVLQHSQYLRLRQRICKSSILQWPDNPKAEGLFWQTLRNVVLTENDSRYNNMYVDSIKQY
Experiment: TLR7/8 reporter assay (HEK293, NFκB Nanoluc luciferase reporter), human TLR8
Type: cell-based
Details: read-out: hTLR8 EC50
Method: HEK293 cells (ATCC, #CRL-1573) were co-transfected with an expression vector having a nucleotide sequence encoding a TLR (human TLR7, human TLR8 or mouse TLR7) protein and a Nanoluc PEST luciferase reporter vector having an NFκB response element sequence (Genbank: JQ513377 bases 33 to 84) integrated therein. Thereafter, the transfected cells were cultured in DMEM (Sigma-Aldrich, #D5796-500 mL) containing Geneticin (Gibco, #10131-027) at a final concentration of 800 μg/mL, Hygromycin B (Invitrogen, #10687010) at a final concentration of 500 μg/mL, penicillin streptomycin (Gibco, #15070-063) at a final concentration of 1% and a 10% fetal bovine serum (FBS) (HyClone, #SH30084.03) to obtain a stable cell line for expression.
To reporter cells obtained above, DMEM containing 10% FBS was added to prepare a suspension of 1×10^5 cells/mL. The suspension was added to the wells of a 384-well white plate coated with collagen I (hereinafter referred to as “384-well plate”, Corning, #356703) at a rate of 20 μL per well. The cells were cultured in the conditions of 37° C. and 5% CO2, overnight (18 hours) and allowed to adhere to the plate. A test sample was dissolved in DMSO. The solution was diluted by adding DMEM medium containing 10% FBS to the solution such that the concentration becomes 5-fold as high as a final concentration. The diluted DMEM medium was added to the wells of the 384-well plate at a ratio of 5 μL/well. After the medium was further incubated in the conditions of 37° C. and 5% CO2 for 24 hours, the plate was taken out and allowed to stand still at room temperature for 10 minutes. Thereafter, chemiluminescence was measured using Nano-Glo Luciferase Assay System (Promega, #N1120) and EnVision 2104 (PerkinElmer) plate reader. A dose-response curve was prepared for each test sample and the EC50 value was obtained as a concentration at 50% of the maximum signal. In the table, hTLR7 represents human TLR7 and hTLR8 represents human TLR8; and mTLR7 represents mouse TLR7. A data item attached with an asterisk (*) indicates the result of 7 hour-incubation and other data items are the results of 24-hour incubation.

| Compound | EC50 (24-hour incubation) [nM] | EC50 (asterisk (*): 7 hour-incubation) [nM] |
| --- | --- | --- |
| CCCCCNc1nc(N)nc2ccn(Cc3ccc(CN4CCNC[C@H]4CF)cc3OC)c12 [Ex1, 5-[(4-{[(2S)-2-(fluoromethyl)piperazin-1-yl]methyl}-2-methoxyphenyl)methyl]-N^4-pentyl-5H-pyrrolo[3,2-d]pyrimidine-2,4-diamine] | 220 | – |
| CCCCCNc1nc(N)nc2ccn(Cc3ccc(CN4CCN[C@@H](CF)C4)cc3OC)c12 [Ex2, 5-[(4-{[(3R)-3-(fluoromethyl)piperazin-1-yl]methyl}-2-methoxyphenyl)methyl]-N^4-pentyl-5H-pyrrolo[3,2-d]pyrimidine-2,4-diamine (trifluoroacetic acid) salt] | 1970 | – |
| CCCCCNc1nc(N)nc2ccn(Cc3ccc(CNC4CC4)cc3OC)c12 [Ex3, 5-({4-[(cyclopropylamino)methyl]-2-methoxyphenyl}methyl)-N^4-pentyl-5H-pyrrolo[3,2-d]pyrimidine-2,4-diamine] | 2160 | – |
| CCCCCSc1nc(N)nc2ccn(Cc3ccc(CN4CCNCC4)cc3OC)c12 [Ex4, 5-({2-methoxy-4-[(piperazin-1-yl)methyl]phenyl}methyl)-4-(pentylsulfanyl)-5H-pyrrolo[3,2-d]pyrimidin-2-amine] | 2480 | – |
| CCCCCSc1nc(N)nc2ccn(Cc3ccc(CN4CCC[C@H]4CO)cc3OC)c12 [Ex5, {(2S)-1-[(4-{[2-amino-4-(pentylsulfanyl)-5H-pyrrolo[3,2-d]pyrimidin-5-yl]methyl}-3-methoxyphenyl)methyl]pyrrolidin-2-yl}methanol] | 11700 | – |
| CCCCCNc1nc(N)nc2c(Cl)cn(Cc3ccc(CN4CCC[C@H]4CO)cc3OC)c12 [Ex6, {(2S)-1-[(4-{[2-amino-7-chloro-4-(pentylamino)-5H-pyrrolo[3,2-d]pyrimidin-5-yl]methyl}-3-methoxyphenyl)methyl]pyrrolidin-2-yl}methanol] | 964 | – |
| CCCCCNc1nc(N)nc2c(Br)cn(Cc3ccc(CN4CCC[C@H]4CO)cc3OC)c12 [Ex7, {(2S)-1-[(4-{[2-amino-7-bromo-4-(pentylamino)-5H-pyrrolo[3,2-d]pyrimidin-5-yl]methyl}-3-methoxyphenyl)methyl]pyrrolidin-2-yl}methanol] | 2000 | – |
| CCCCCNc1nc(N)nc2cc(C)n(Cc3ccc(CN4CCNCC4)cc3OC)c12 [Ex8, 5-({2-methoxy-4-[(piperazin-1-yl)methyl]phenyl}methyl)-6-methyl-N^4-pentyl-5H-pyrrolo[3,2-d]pyrimidine-2,4-diamine hydrochloride] | 2110 | – |
| CCCCCNc1nc(N)nc2ccn(Cc3ccc(CC4CCNCC4)cc3OC)c12 [Ex9, 5-({2-methoxy-4-[(piperidin-4-yl)methyl]phenyl}methyl)-N^4-pentyl-5H-pyrrolo[3,2-d]pyrimidine-2,4-diamine] | 1180 | – |
| CCCCCNc1nc(N)nc2ccn(Cc3ccc(CN4CCNC[C@@H]4CF)cc3OC)c12 [Ex10, 5-[(4-{[(2R)-2-(fluoromethyl)piperazin-1-yl]methyl}-2-methoxyphenyl)methyl]-N^4-pentyl-5H-pyrrolo[3,2-d]pyrimidine-2,4-diamine] | 716 | – |

Results, then the molecule that gave them:

| EC50 (24-hour incubation) [nM] | EC50 (asterisk (*): 7 hour-incubation) [nM] | Compound |
| --- | --- | --- |
| 13300 | – | COc1cc(CN2CCNC[C@H]2CF)ccc1Cn1ccc2nc(N)nc(SCc3cc(C)on3)c21 [Ex11] |
| – | 685 | CCCCCNc1nc(N)nc2ccn(Cc3ccc(CNCC4CCC4)cc3OC)c12 [Ex12] |
| 6220 | – | CCCCCSc1nc(N)nc2ccn(Cc3ccc(CN4CC[C@H]4CO)cc3OC)c12 [Ex13] |
| 6590 | – | CCCCCSc1nc(N)nc2ccn(Cc3ccc(CN4CCC(O)CC4)cc3OC)c12 [Ex14] |
| 4880 | – | CCCCCSc1nc(N)nc2ccn(Cc3ccc(CN4CC[C@@H](CN)C4)cc3OC)c12 [Ex15] |
| 3740 | – | CCCCCNc1nc(N)nc2c(Cl)cn(Cc3ccc(CN4CC[C@H]4CO)cc3OC)c12 [Ex17] |
| 3630 | – | CCCCCNc1nc(N)nc2c(Cl)cn(Cc3ccc(CN4CCC[C@H]4C(C)(C)O)cc3OC)c12 [Ex18] |
